Results taken from paper PMC11714206, “Massively Parallel Screening of Toll/Interleukin‐1 Receptor (TIR)‐Derived Peptides Reveals Multiple Toll‐Like Receptors (TLRs)‐Targeting Immunomodulatory Peptides” (Advanced Science, 2024).

Target: T1, MyD88^TIR (Homo sapiens, UniProt Q99836)
T1 construct: MyD88 (residues 148–296); 6xHis; made in house; host or cells: E. coli BL21 (DE3)
Assay: T‐Surf phage library (P8 and P3) selection against MyD88^TIR, four rounds, NGS read counts
Assay type: binding
Settings: for P8_MyD88 Rank (after) / P8_MyD88 Rank (before): P8 library; for Population: 4th round of selection against MyD88 TIR, share of NGS reads; for P3_MyD88 Rank (after) / P3_MyD88 Rank (before): P3 library
Experimental: T‐Surf libraries were screened against the immobilized TIR domains of two major human TLR adaptor proteins, MAL^TIR and MyD88^TIR, allowing cross‐species selection of TIR‐binding motifs with 190 946 TIR‐derived peptides in a single binding assay (Scheme 1). Enriched phage pools from the fourth round of selection were analyzed using NGS after barcoding the peptide‐coding regions of the phage pools.
Phage display screening was performed by coating two wells of a 96‐well plate (Maxisorp, Thermo Fisher Scientific) with 100 µL of 5 µg mL^−1 TIR domains overnight; then, the coated wells were blocked with 200 µL of blocking buffer (0.2% BSA in PBS) and set aside for 1 h at 4 °C with gentle shaking. Next, 100 µL of the phage library was added to the wells and incubated for 1 h at room temperature (RT; 20 – 22 °C) with gentle shaking. The plate was washed four times with PBS containing 0.5% Tween‐20; the bound phages were eluted by adding 100 µL of 100 mM HCl to each well. The elute was neutralized with 10 µL of 1.0 M Tris‐HCl (pH 11.0). E. coli TG1 cells were grown to the log phase (A600 = ≈0.6), and 1 mL of the culture was incubated with 100 µL of the eluted phages for 30 min at 37 °C, with shaking at 200 rpm. Next, 1 µL of M13KO7 helper phages was added, followed by incubation for 45 min at 37 °C, with shaking. Subsequently, the cells were transferred to 25 mL of 2× yeast extract tryptone/carbenicillin/kanamycin medium and incubated overnight at 37 °C with shaking at 200 rpm. The amplified phages were precipitated with 20% PEG‐8000/2.5 M NaCl to be used for the next round of selection.
The naïve T‐Surf libraries in P8 and P3 and the enriched phage pools after four rounds were barcoded for NGS as previously described.^[ [59] ^] Briefly, 5 µL of the phage pool was used as a template for 20 cycles of a 50 µL PCR reaction using […] each of forward and reverse barcoded primers and PrimeSTAR Max DNA Polymerase. The PCR products were purified using Expin Gel SV (GeneAll). The NGS samples were quantified using qPCR, following the qPCR Quantification Protocol Guide (KAPA Library Quantification kits for Illumina Sequencing Platform), and qualified using the TapeStation High Sensitivity D1000 ScreenTape (Agilent Technologies). The indexed libraries were further sequenced by Macrogen (Seoul, Republic of Korea) using the NovaSeq platform (Illumina) with 100 bp paired‐end reads. The reads were demultiplexed by barcodes and filtered for an average Phred quality score of at least 30, followed by trimming the flanking consensus sequences using Cutadapt (version 2.3). Peptide sequence populations were analyzed according to the read counts.

[1] = selection against MyD88, rank after grouping
[2] = selection against MyD88, rank before grouping
[3] = P8_MyD88: rank by count after grouping
[4] = P8_MyD88: rank by count before grouping
[5] = P8_MyD88 pool: P8 T-Surf phage library
[6] = P3_MyD88: rank by count after grouping
[7] = P3_MyD88: rank by count before grouping
[8] = 4R selection against MyD88, rank after grouping
[9] = 4R selection against MyD88, rank before grouping
[10] = P3_MyD88 pool: P3 T-Surf phage library
[11] = selection against MyD88 TIR, rank by count after grouping
[12] = selection against MyD88 TIR, rank by count before grouping
[13] = selection against MyD88, rank by count after grouping
[14] = selection against MyD88, rank by count before grouping

T1 sequence (Q99836 148-296): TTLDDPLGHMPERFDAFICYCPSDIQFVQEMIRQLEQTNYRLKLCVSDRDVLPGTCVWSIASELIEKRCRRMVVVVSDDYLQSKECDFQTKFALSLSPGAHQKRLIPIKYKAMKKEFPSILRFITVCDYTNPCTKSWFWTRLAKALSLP

WALDELLQILHACEPF
P8_MyD88 Rank (after) [1]: 524
P8_MyD88 Rank (before) [2]: 1441

TSHFLDSYWAMFELNM
Rank (after) [3]: 140
Rank (before) [4]: 152
Population [5]: 0.01%

DPQDRDWIYERLVSLF
Rank (after) [3]: 423
Rank (before) [4]: 2956

EWIREQLRPALKERL
Rank (after) [6]: 112
Rank (before) [7]: 995

FLSYRSLEKRFGPIGP
Rank (after) [6]: 190
Rank (before) [7]: 1344

EWIREHLRLALKERLP
Rank (after) [6]: 446
Rank (before) [7]: 2130

DPPLLHGLYERLVILF
P8_MyD88 Rank (after) [1]: 485
P8_MyD88 Rank (before) [2]: 2602

DPQLLVCFYERLVSLF
P8_MyD88 Rank (after) [8]: 640
P8_MyD88 Rank (before) [9]: 3023

SSFREGLWRLLELSKN
Population [10]: 0.00349%

DTKLKEGDCVPPELLR
P3_MyD88 Rank (after) [8]: 664
P3_MyD88 Rank (before) [9]: 2090

EGFTGFLYEALTRYGI
Rank (after) [3]: 174
Rank (before) [4]: 197

RISAFHQQLVMALKERLP
P3_MyD88 Rank (after) [11]: 263
P3_MyD88 Rank (before) [12]: 1105

AYILNFIKGNVMFEFL
Rank (after) [3]: 129
Rank (before) [4]: 140
Population [5]: 0.0116%

LKVEGWRRALEKAGNL
Rank (after) [6]: 467
Rank (before) [7]: 2470

SSCREGLWRLLELSNK
Rank (after) [6]: 402
Rank (before) [7]: 3260

YYLDTSHHRKQSGEFG
P3_MyD88 Rank (after) [11]: 246
P3_MyD88 Rank (before) [12]: 1438

YYLDPSHLRKHSGEIG
P3_MyD88 Rank (after) [1]: 558
P3_MyD88 Rank (before) [2]: 1464

DPQGVDLFYERQVSLL
P8_MyD88 Rank (after) [1]: 567
P8_MyD88 Rank (before) [2]: 2675

WEDVRINFLSHFLKEL
P8_MyD88 Rank (after) [11]: 253
P8_MyD88 Rank (before) [12]: 434

WALSELVEILRARENM
P8_MyD88 Rank (after) [11]: 195
P8_MyD88 Rank (before) [12]: 254

SSFRKGLWRLLELLKK
Rank (after) [6]: 150
Rank (before) [7]: 3231

DWVWDYLLPNLEGHAT
Rank (after) (P8_MyD88: rank by NGS read count after grouping): 904
Rank (before) (P8_MyD88: rank by NGS read count before grouping): 2439

DWVWDYLLPKLECPSG
P8_MyD88 Rank (after) [8]: 579
P8_MyD88 Rank (before) [9]: 2447

KNLFNLLGSKDIRALM
P3_MyD88 Rank (after) [1]: 542
P3_MyD88 Rank (before) [2]: 3781

YYLDPSHLRKQSVEFS
Rank (after) [6]: 473
Rank (before) [7]: 1451

SSFRGGLWRLLELRKE
P3_MyD88 Rank (after) [1]: 528
P3_MyD88 Rank (before) [2]: 3131

LKCCYPYFWSKLRYAM
P3_MyD88 Rank (after) [8]: 612
P3_MyD88 Rank (before) [9]: 2460

SSLREGLWRLLELSKR
P3_MyD88 Rank (after) [11]: 209
P3_MyD88 Rank (before) [12]: 3257

YNFISQLYDALQRNRI
P3_MyD88 Rank (after) [13]: 710
P3_MyD88 Rank (before) [14]: 1743

ELDFSHFWLFDGQSGKDA
P8_MyD88 Rank (after) [11]: 216
P8_MyD88 Rank (before) [12]: 359

SSFREGMWRLMVLSKK
P3_MyD88 Rank (after) [1]: 562
P3_MyD88 Rank (before) [2]: 3219

WDFSGNIEQFWDRLYY
P8_MyD88 Rank (after) [13]: 758
P8_MyD88 Rank (before) [14]: 1570

PKVGSWRQALEKAGKL
P3_MyD88 Rank (after) [1]: 560
P3_MyD88 Rank (before) [2]: 2763

GEDTRYTFTGHLHRYLVQRGV
P3_MyD88 Rank (after) [11]: 240
P3_MyD88 Rank (before) [12]: 917

DPQDLALFYERLVSLF
P8_MyD88 Rank (after) [11]: 251
P8_MyD88 Rank (before) [12]: 2727

PQELEWFHKRLVRLIL
Rank (after) [3]: 455
Rank (before) [4]: 3496

NQWHNALTAAANLSGW
Population [10]: 0.00291%

RSFRKGLWRLLELSNK
Rank (after) [6]: 431
Rank (before) [7]: 2695

EWILSKLSQHILKREK
P3_MyD88 Rank (after) [8]: 632
P3_MyD88 Rank (before) [9]: 2128

DHHLDLPRGKAIKPEILG
P8_MyD88 Rank (after) [13]: 757
P8_MyD88 Rank (before) [14]: 3049
